Test results taken from patent US20250026752A1, “POSITIVE ALLOSTERIC MODULATORS OF THE MUSCARINIC ACETYLCHOLINE RECEPTOR M4” (Vanderbilt University, priority 2021, published 2025).

Columns and labels:
[1] = hepatotoxicity of AChE inhibitors; cited from earlier work
[2] = without causing catalepsy; cited from earlier work
[3] = Alzheimer's disease patients; cited from earlier work
human mAChR M4 = target: T1, human mAChR M4 (Homo sapiens, UniProt P08173); assay: mAChR M4 cell-based functional assay: calcium flux (Fluo-4, FDSS), positive allosteric modulator activity on the EC20 acetylcholine response, hM4-Gqi5 CHO-K1 cells; conditions: for Emax at 30 µM: CHO-K1, human M4, % ACh maximum at 30 μM; for EC50: human M4, PAM activity on EC20 acetylcholine response, calcium flux, read-out: Human M4 EC50
T1 construct: expressed in transfected cells; host or cells: CHO-K1 (ATCC), stably expressing hM4 and Gqi5
T1 sequence (P08173 1-479): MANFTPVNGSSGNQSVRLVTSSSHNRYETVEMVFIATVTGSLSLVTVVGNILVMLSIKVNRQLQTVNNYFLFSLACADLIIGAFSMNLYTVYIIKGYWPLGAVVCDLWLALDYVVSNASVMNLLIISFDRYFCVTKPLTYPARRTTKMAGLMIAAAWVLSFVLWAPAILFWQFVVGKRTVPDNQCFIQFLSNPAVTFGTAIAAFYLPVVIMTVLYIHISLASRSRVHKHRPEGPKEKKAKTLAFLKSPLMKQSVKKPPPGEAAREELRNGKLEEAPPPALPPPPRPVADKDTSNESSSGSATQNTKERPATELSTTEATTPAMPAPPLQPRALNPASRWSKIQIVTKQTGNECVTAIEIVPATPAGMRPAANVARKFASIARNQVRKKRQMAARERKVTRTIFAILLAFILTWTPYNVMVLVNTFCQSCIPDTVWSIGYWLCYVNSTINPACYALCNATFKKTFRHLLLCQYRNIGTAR
Outline: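 Potentiation was taken as the concentration-dependent rise in the EC20 acetylcholine calcium response, fitted by a four-parameter logistic with EC20 as baseline. Fluo-4-loaded hM4-Gqi5 CHO-K1 cells received 11-point, threefold-diluted compound before acetylcholine at 144 s; FDSS read at 1 Hz.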

SMILES	elevated liver transaminases observed in patients [1]	activity in animal models with profiles similar to known antipsychotic drugs [2]	effect on psychotic behavioral symptoms (delusions, suspiciousness, vocal outbursts, hallucinations) [3]	Emax at 30 µM (human mAChR M4) [%]	EC50 (human mAChR M4) [nM]
Nc1c2c(nc3ccccc13)CCCC2 [tacrine]	about 30 % of patients	–	–	–	–
CCCCCCOc1nsnc1C1=CCCN(C)C1 [xanomeline]	–	active in animal models	reduce psychotic behavioral symptoms	–	–
Cc1ccc(F)c(Oc2cnc3c(c2)CN(c2ncnc4ccc(Cl)cc24)CC3)c1 [Compound 152, 6-chloro-4-[3-(2-fluoro-5-methyl-phenoxy)-7,8-dihydro-5H-1,6-naphthyridin-6-yl]quinazoline]	–	–	–	72	5290
Clc1ccc2nc(Cl)nc(N3CCc4ncc(N5CCCn6nccc65)cc4C3)c2c1 [Compound 89, 2,6-dichloro-4-[3-(6,7-dihydro-5H-pyrazolo[1,5-a]pyrimidin-4-yl)-7,8-dihydro-5H-1,6-naphthyridin-6-yl]quinazoline]	–	–	–	109	250
